Data on two compounds can be found in PMC4712933, “Development of Follicle-Stimulating Hormone Receptor Binding Probes to Image Ovarian Xenografts” (Journal of biotechnology & biomaterials, 2015).

Series [1] deals with FSHR. As to conditions: low doses; cited from earlier work. From the text:
Their small effective hydrodynamic diameter, high washout rates, and rapid renal filtration are highly valued for in vivo imaging, where an optimal tumor-to-reference tissue ratio (TRR) can be quickly reached. This was de ...

In a further series the target is T1, FSHR on OVCAR-3 cells (Homo sapiens, UniProt P23945).
T1 construct: endogenous in cells; host or cells: OVCAR-3 cells
T1 sequence (P23945 18-695): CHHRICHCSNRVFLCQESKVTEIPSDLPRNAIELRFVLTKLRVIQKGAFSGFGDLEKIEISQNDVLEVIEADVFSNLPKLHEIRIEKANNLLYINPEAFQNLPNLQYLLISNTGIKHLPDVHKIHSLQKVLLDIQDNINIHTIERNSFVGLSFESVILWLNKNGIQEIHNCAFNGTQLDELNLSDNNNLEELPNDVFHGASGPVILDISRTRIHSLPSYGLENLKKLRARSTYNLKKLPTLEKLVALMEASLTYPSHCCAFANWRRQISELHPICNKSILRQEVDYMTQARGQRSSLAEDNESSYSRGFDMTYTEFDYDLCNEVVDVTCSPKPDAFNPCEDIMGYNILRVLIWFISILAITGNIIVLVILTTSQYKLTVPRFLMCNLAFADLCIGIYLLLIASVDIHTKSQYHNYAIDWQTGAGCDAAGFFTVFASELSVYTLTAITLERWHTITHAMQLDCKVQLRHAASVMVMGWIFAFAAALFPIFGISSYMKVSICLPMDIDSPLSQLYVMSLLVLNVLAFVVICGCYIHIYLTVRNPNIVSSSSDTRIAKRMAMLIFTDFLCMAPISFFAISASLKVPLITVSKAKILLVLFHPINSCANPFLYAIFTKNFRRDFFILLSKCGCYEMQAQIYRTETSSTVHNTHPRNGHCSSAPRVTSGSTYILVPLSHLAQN
Kind of series: Flow cytometry binding of BI-10^FAM to OVCAR-3 cells. The method, then:
OVCAR-3 cells (generously provided by Dr. Mellisa Fishell of Indiana University School of Medicine) were chosen for in vitro binding experiment due to its high level of FSHR expression. For the first 2–3 passages, the cells were plated in […] flasks using RPMI medium (supplemented with 5 μM Insulin (Sigma), 20% FBS (Hyclone), Sodium private (GIBCO), and Pen Strep (GIBCO)), and placed in an incubator (5% CO2 at a temperature of 37°C incubator) to maintain viability. For peptide binding experiments, cells were plated in six-well plates with the medium and environment conditions as previously described. Medium was changed every 2–3 days until cells reached more than 90% confluency. […] These samples were ready for imaging within the flow cytometer. […]
Each sample of OVCAR-3 cells was placed within the flow cytometer (Beckman Coulter FC500) and the FITC fluorescent intensity from the BI-10^FAM peptide bound to the OVCAR-3 cells were acquired. A TOPO-3 dye (Sigma) in 1 nM concentration was used to acquire the fluorescence from only viable cells in a two-color flow cytometry assay. Ten thousand cells were counted and the fluorescence measured in each sample. […] The EC50 value (binding affinity) and receptor saturation intensity were calculated using a nonlinear regression analysis using GraphPad Prism fitting algorithm (GraphPad Software, Inc.). […]

For series [2], the system named is FSHR. To be noted: cited from earlier work. From the text: FSHR belongs to G protein-coupled receptor and consists of a transmembrane and an extracellular domain, where the former is characterized by a seven helical repeats and the latter by multiple leucine-rich repeats. FSHR is expressed on normal ovarian epithelium, e.g., the fallopian tubal epithelium, and shares about 70% transmembrane domain sequence with other G protein-coupled receptors, such as L ...

For a further series, the system named is FSHR-rich Sertoli cells. As to conditions: FSHR-rich Sertoli cells from Bovine Calf testes; ref 29 (Lee et al); read-out: EC50, radio-ligand binding assay; cited from earlier work.

Where a SMILES comes first, the peptide text is derived from it. The star is where a group is joined. 5FAM = O=C1OC2(c3ccc(O)cc3Oc3cc(O)ccc32)c2ccc(C(=O)*)cc21

A word on the EC50: it is the midpoint of the concentration-response curve. Turning to `CC(C)C[C@H](NC(=O)[C@H](CC(N)=O)NC(=O)[C@H](CCC(=O)O)NC(=O)[C@@H](NC(=O)c1ccc2c(c1)C(=O)OC21c2ccc(O)cc2Oc2cc(O)ccc21)[C@@H](C)O)C(=O)N[C@@H](CCC(=O)O)C(=O)N1CCC[C@H]1C(=O)N[C@@H](CC(N)=O)C(=O)NCC(=O)N[C@@H](CCC(=O)O)C(=O)NCC(N)=O` [BI-10^FAM] (5FAM-TENLEPNGEG-NH2), in the series with FSHR [1], the physiologic effects result is on record as “negligible physiologic effects when used in low doses”. In addition, the EC50 on FSHR on OVCAR-3 cells (OVCAR-3 cells, BI-10^FAM, 30 min incubation, 37°C incubator, 1.0-500 μM, wash with PBS, 5 mM EDTA detachment, median FITC fluorescence, flow cytometry, TOPO-3 viable gate, 10,000 cells, nonlinear regression, R^2=0.93, average of three measurements (Figure 1: n=5), read-out: EC50 (binding affinity, dose response curve)) came out at 160 µM.
As for TENLEPNGEGNH2 [BI-10], the “binding to FSHR, in words” value with FSHR [2] (functional radio ligand receptor assay, synthetic BI-10) was “specifically binds to FSHR”; on FSHR on OVCAR-3 cells (BI-10 binding curves), “highly specific but low in affinity”. Further, in the series with FSHR [2] (synthetic BI-10 peptide, high concentrations), the “inhibition of FSH-stimulated estradiol and cAMP synthesis, in words” value was “inhibits FSH-stimulated estradiol and secondary messenger cAMP synthesis at high concentrations”. For the same compound, the EC50 with FSHR-rich Sertoli cells was approximately 300 µM.
